Assay results published in patent US20180264134A1, “A COMPOSITION OF GOLD NANOPARTICLES HAVING ANTIMICROBIAL PEPTIDES BOUND ON THEIR SURFACE FOR USE THE TREATMENT OF WOUND HEALING OR IN THE TREATMENT OF ISCHEMIC OR VASCULAR DISEASES OR IN THE TREATMENT OF SKIN DISORDERS” (priority 2015, published 2018).

Assays:
EGFR = EGFR phosphorylation in HaCaT (ELISA); format: cell-based, human; details: LL37 5 μg/mL; LL37-Au NPs 15 or 200 μg/mL
Procedure: In an embodiment the detection of EGFR and ERK1/2 phosphorylation, can be perform by: the activation of EGFR receptor in HaCaT (80% confluency, in 6-well plates) was induced by starving the cells for 24 h in DMEM supplemented with 1% (v/v) penicillin and adding soluble LL37, LL37-Au NPs and Au NPs for a given period of time. Following treatment, the plates were immersed in ice and the medium was discarded. Then the proteins were isolated from the cells . . . . The levels of EGFR (phosphorylated EGFR and total EGFR) were determined by ELISA kit (R&D Systems). The activation of ERK signaling pathways in HaCaT (80% confluency, in one 96-well cell culture clear-bottom black microplate) were obtained starving the cells for 24 h in DMEM supplemented with 1% (v/v) penicillin and then stimulating them with soluble LL37 (5 μg/mL), LL37-Au NPs and Au NPs (200 μg/mL). After treatments the level of ERK were determined using a phosphoprotein and total protein ELISA kit (R&D Systems ref. KCB1018) according to the manufacture's instructions. Data were acquired with a BioTek synergy MX microplate reader.

HaCaT = assay: Membrane potential by DiOC5(3) flow cytometry in HaCaT; format: cell-based, human
Procedure: In an embodiment the membrane potential can be determined by: HUVEC and HaCaT cells were seeded at a density of 4×10^4 cells/cm^2 and in 24-well plates and cultured for 24 h. […] Soluble LL37 were also used in the concentration of 0.5, 1, 10, 30, 60 μg/mL. After 5 and 48 h, cells were harvested, resuspended in medium with 5 nM of DiOC5(3) (Sigma-Aldrich) and incubated for 5 min at room temperature in the dark, prior to the analysis with the flow cytometer (FACSCalibur, BD Biosciences). Cells treated with gramicidin (10 μM) or valinomycin (10 μM) were used as controls for cell depolarization and hyperpolarization, respectively.

HUVECs [1] = assay: Cytotoxicity in HUVECs (PI viability, ATP, ROS); format: cell-based
Procedure: In an embodiment of the cytotoxicity studies in HUVECs and HaCaT may be seeded at a density of 1×10^4 and 2×10^4 cells per well respectively and cultured in a 96-well plate for 24 and then incubated with soluble LL37 (0.5, 1, 10, 30, 60 μg/mL), LL37 Au-NPs and AuNPs suspended in culture medium at different concentrations (25, 50, 100 and 200 μg/mL). After 5 and 24 h, CellTiter-Glo® Luminescent Cell Viability Assay (Promega) was used to assess the ATP production of the cells according to the supplier's instructions. For ROS quantification, cells were seeded at a density of 4×10^4 cells/cm^2 in 24-well plates and cultured for 24 h. Either LL37-Au NPs or Au NPs suspended in culture medium at different concentrations (25, 50, 100 and 200 μg/mL) were added to cells and left for 5 h and 48 h. Before the treatment ended, cells were dosed with 100 μM of 6-carboxy-2′,7′-dichlorodihydrofluorescein diacetate (DCFH-DA), a dye commonly used to measure intracellular changes in ROS, for 1 hour. After washing the cells twice, they were trypsinized, centrifuged and resuspended in PBS to proceed with flow cytometry analysis (FACS Canto II, BD Biosciences). 1 mM H2O2 was used as a positive control for ROS production. In addition, propidium iodide (PI) (1 μg/mL final concentration) was used to quantify cell viability and to exclude the dead cells (i.e. PI positive cells) from the DCFH analysis.

HUVECs [2] = assay: Membrane potential by DiOC5(3) flow cytometry in HUVECs; format: cell-based, human; details: 5 h exposure
Procedure: In an embodiment the membrane potential can be determined by: HUVEC and HaCaT cells were seeded at a density of 4×10^4 cells/cm^2 and in 24-well plates and cultured for 24 h. Either LL37 Au-NPs or Au-NPs suspended in culture medium at different concentrations (25, 50, 100 and 200 μg/mL, n=3) were added to cells. Soluble LL37 were also used in the concentration of 0.5, 1, 10, 30, 60 μg/mL. After 5 and 48 h, cells were harvested, resuspended in medium with 5 nM of DiOC5(3) (Sigma-Aldrich) and incubated for 5 min at room temperature in the dark, prior to the analysis with the flow cytometer (FACSCalibur, BD Biosciences). Cells treated with gramicidin (10 μM) or valinomycin (10 μM) were used as controls for cell depolarization and hyperpolarization, respectively.

venous leg ulcers = details: cited from earlier work
HUVECs [3] = assay: VEGF secretion in HUVECs (ELISA); format: cell-based, human; details: 24 h, LL37 5 μg/mL, NPs 200 μg/mL
Procedure: In an embodiment measurement of VEGF amount in HUVECs can be perform by the following method: HUVECs were seeded at a density of 4×10^4 cells/cm^2 in 24-well plates and cultured for 24 h in EGM-2 without VEGF. LL-37 (5 μg/mL), LL37 AUNPs and AuNPs (200 μg/mL) suspended in culture medium without VEGF at different concentrations were added to cells. LL-37 (5 μg/mL) and LL-37 AUNPs (200 μg/mL) were also incubated in the presence of 10 μM of FPRL1 Antagonist. After 24 h of incubation, cell media from all the conditions were collected and used to quantify VEGF amount in supernatants. In order to calculate the amount of VEGF in supernatants, Human VEGF ELISA development Kit (PeproTech) was used according to the manufacture's instructions. A calibration curve was used for the ranging between 0-1000 pg/mL VEGF.

## CC[C@H](C)[C@H](NC(=O)[C@H](CCCCN)NC(=O)[C@H](CCC(=O)O)NC(=O)[C@H](CCCCN)NC(=O)[C@H](CO)NC(=O)[C@H](CCCCN)NC(=O)[C@H](CCCNC(=N)N)NC(=O)[C@H](Cc1ccccc1)NC(=O)[C@H](Cc1ccccc1)NC(=O)[C@H](CC(=O)O)NC(=O)CNC(=O)[C@H](CC(C)C)NC(=O)[C@@H](N)CC(C)C)C(=O)NCC(=O)N[C@@H](CCCCN)C(=O)N[C@@H](CCC(=O)O)C(=O)N[C@@H](Cc1ccccc1)C(=O)N[C@@H](CCCCN)C(=O)N[C@@H](CCCNC(=N)N)C(=O)N[C@H](C(=O)N[C@H](C(=O)N[C@@H](CCC(N)=O)C(=O)N[C@@H](CCCNC(=N)N)C(=O)N[C@H](C(=O)N[C@@H](CCCCN)C(=O)N[C@@H](CC(=O)O)C(=O)N[C@@H](Cc1ccccc1)C(=O)N[C@@H](CC(C)C)C(=O)N[C@@H](CCCNC(=N)N)C(=O)N[C@@H](CC(N)=O)C(=O)N[C@@H](CC(C)C)C(=O)N[C@H](C(=O)N1CCC[C@H]1C(=O)N[C@@H](CCCNC(=N)N)C(=O)N[C@H](C(=O)N[C@@H](CCC(=O)O)C(=O)N[C@@H](CO)C(=O)N[C@@H](CS)C(N)=O)[C@@H](C)O)C(C)C)[C@@H](C)CC)C(C)C)[C@@H](C)CC [LL37]
EGFR
  persistence of EGFR phosphorylation: 10 min
  time of peak EGFR phosphorylation: 8 min
HaCaT; 5 h of contact
  membrane potential of keratinocytes: hyperpolarized
HaCaT; 48 h of contact
  membrane potential of keratinocytes: not observed
HaCaT; 48 h of contact, listed as LL37 peptide
  membrane potential of keratinocytes: the effect was lost
HaCaT; NPs up to 400 μg/mL
  membrane potential of HaCaT: not altered
HaCaT; keratinocytes, 5 h exposure
  concentration causing slight hyperpolarization: above 25 μg/mL
HUVECs [1]
  concentration showing cytotoxic effect: 10000 ng/mL
HUVECs [1]; 5 and 48 h
  concentration up to which no significant change in cell viability, ATP production, ROS: ≤ 30000 ng/mL
HUVECs [1]; 48 h
  concentration at which significant cell death and ROS production were observed: 30000 ng/mL
HUVECs [2]
  concentration causing depolarization: above 30 μg/mL
  concentration causing hyperpolarization: below 30 μg/mL
Venous leg ulcers; patients with venous leg ulcers
  primary safety and tolerability end-point: met
Venous leg ulcers; twice per week, 0.5 mg/mL
  healing rate compared with placebo: statistically significant improved healing rate
HUVECs [3]
  secretion of VEGF165: induce the secretion
